Results from patent publication US20160115141A1, “CARBOXYLIC ACID DERIVATIVES FOR TREATMENT OF OXIDATIVE STRESS DISORDERS” (EDISON PHARMACEUTICALS, INC., priority 2013, published 2016).

system: FRDA fibroblasts stressed by addition of L-buthionine-(S,R)-sulfoximine (BSO); assay: Rescue of BSO-stressed human dermal fibroblasts from Friedreich's Ataxia patients (Calcein AM viability); type: cell-based; settings: FRDA fibroblasts GM04078, 1 mM BSO, 48 h, average, compounds of the invention
Protocol: An initial screen was performed to identify compounds effective for the amelioration of redox disorders. Test samples, 4 reference compounds (idebenone, decylubiquinone, Trolox and alpha-tocopherol), and solvent controls were tested for their ability to rescue FRDA fibroblasts stressed by addition of L-buthionine-(S,R)-sulfoximine (BSO), as described in Jauslin et al., Hum. Mol. Genet. 11(24):3055 (2002), Jauslin et al., FASEB J. 17:1972-4 (2003), and International Patent Application WO 2004/003565. […] This specific BSO-mediated cell death can be prevented by administration of antioxidants or molecules involved in the antioxidant pathway, such as alpha-tocopherol, selenium, or small molecule glutathione peroxidase mimetics. However, antioxidants differ in their potency, i.e. the concentration at which they are able to rescue BSO-stressed FRDA fibroblasts.
MEM (a medium enriched in amino acids and vitamins, catalog no. 1-31F24-I) and Medium 199 (M199, catalog no. 1-21F22-I) with Earle's Balanced Salts, without phenol red, were purchased from Bioconcept. Fetal Calf Serum was obtained from PAA Laboratories. Basic fibroblast growth factor and epidermal growth factor were purchased from PeproTech. Penicillin-streptomycin-glutamine mix, L-buthionine (S,R)-sulfoximine, (+)-alpha-tocopherol, decylubiquinone, and insulin from bovine pancreas were purchased from Sigma. Trolox (6-Hydroxy-2,5,7,8-tetramethylchromane-2-carboxylic acid) was obtained from Fluka. Idebenone was obtained from Chemo Iberica. Calcein AM was purchased from Anaspec. Cell culture medium was made by combining 125 ml M199 EBS, 50 ml Fetal Calf Serum, 100 U/ml penicillin, 100 microgram/ml streptomycin, 2 mM glutamine, 10 microgram/ml insulin, 10 ng/ml EGF, and 10 ng/ml bFGF; MEM EBS was added to make the volume up to 500 ml. A 10 mM BSO solution was prepared by dissolving 444 mg BSO in 200 ml of medium (Invitrogen, Carlsbad, Ca.) with subsequent filter-sterilization. During the course of the experiments, this solution was stored at +4° C. […]

| SMILES | EC50 [nM] |
| --- | --- |
| CCOC(=O)CCC(C)(O)CCC1=C(C)C(=O)C(C)=C(C)C1=O (stereo not drawn) | 275 |
| CC1=C(C)C(=O)C(CCC2(C)CCC(=O)O2)=C(C)C1=O (stereo not drawn) | 270 |
| CC1=C(C)C(=O)C(CCC(C)(O)CCC(N)=O)=C(C)C1=O (stereo not drawn) | 70 |
